Results as given in ChEMBL document CHEMBL1201862, “PubChem BioAssay data set” (2004).
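Each compound was tested at five concentrations against cells in 96-well plates for 48 hours. The concentration for 50% growth inhibition is given as GI50.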 The source made the active and inactive calls. No stated cut-off is given here; in the data, active = GI50 up to about 1.1 µM and inactive = higher.

What was measured:
Experiment in all cases: NCI anticancer screen, dose series, 48 h
786-0 = system: 786-0
BT-549 = system: BT-549
EKVX = system: EKVX
HL-60 = system: HL-60
HOP-62 = system: HOP-62
IGROV-1 = system: IGROV-1
KM12 = system: KM12
LOX IMVI = system: LOX IMVI
MDA-MB-435 = system: MDA-MB-435
MDA-N = system: MDA-N
Malme-3M = system: Malme-3M
OVCAR-3 = system: OVCAR-3
OVCAR-5 = system: OVCAR-5
PC-3 = system: PC-3
RPMI-8226 = system: RPMI-8226
SK-MEL-5 = system: SK-MEL-5
SNB-75 = system: SNB-75
TK-10 = system: TK-10
U-251 = system: U-251
HCC 2998 = system: HCC 2998

Structure (SMILES)	GI50 (786-0)	GI50 (BT-549)	GI50 (EKVX)	GI50 (HL-60)	GI50 (HOP-62)	GI50 (IGROV-1)	GI50 (KM12)	GI50 (LOX IMVI)	GI50 (MDA-MB-435)	GI50 (MDA-N)	GI50 (Malme-3M)	GI50 (OVCAR-3)	GI50 (OVCAR-5)	GI50 (PC-3)	GI50 (RPMI-8226)	GI50 (SK-MEL-5)	GI50 (SNB-75)	GI50 (TK-10)	GI50 (U-251)	GI50 (HCC 2998)
Cc1ccc2ccc(=O)oc2c1	> 100 µM (inactive)	> 100 µM (inactive)	> 100 µM (inactive)	> 100 µM (inactive)	> 100 µM (inactive)	> 100 µM (inactive)	> 100 µM (inactive)	> 100 µM (inactive)	> 100 µM (inactive)	> 100 µM (inactive)	> 100 µM (inactive)	> 100 µM (inactive)	> 100 µM (inactive)	> 100 µM (inactive)	> 100 µM (inactive)	> 100 µM (inactive)	> 100 µM (inactive)	> 100 µM (inactive)	> 100 µM (inactive)	–
CCOC(=O)c1ccc(Nc2nc3ccccc3nc2C(=O)OCC)cc1	57.7 µM (inactive)	> 100 µM (inactive)	> 100 µM (inactive)	> 100 µM (inactive)	> 100 µM (inactive)	> 100 µM (inactive)	75.5 µM (inactive)	–	> 100 µM (inactive)	> 100 µM (inactive)	> 100 µM (inactive)	> 100 µM (inactive)	> 100 µM (inactive)	–	85.9 µM (inactive)	> 100 µM (inactive)	24.7 µM (inactive)	> 100 µM (inactive)	> 100 µM (inactive)	> 100 µM (inactive)
CN(C(=O)Cc1ccccc1)n1cn[n+](CC(=O)OC(C)(C)C)c1	> 10 µM (inactive)	> 10 µM (inactive)	> 10 µM (inactive)	–	> 10 µM (inactive)	> 10 µM (inactive)	> 10 µM (inactive)	> 10 µM (inactive)	> 10 µM (inactive)	> 10 µM (inactive)	> 10 µM (inactive)	> 10 µM (inactive)	> 10 µM (inactive)	> 10 µM (inactive)	0.00119 µM (active)	> 10 µM (inactive)	–	> 10 µM (inactive)	> 10 µM (inactive)	> 10 µM (inactive)
Cc1n2nc(N)sc2n[n+]1Cc1ccccc1	> 100 µM (inactive)	74.6 µM (inactive)	97.5 µM (inactive)	–	72.6 µM (inactive)	58.9 µM (inactive)	> 100 µM (inactive)	> 100 µM (inactive)	> 100 µM (inactive)	> 100 µM (inactive)	> 100 µM (inactive)	89.9 µM (inactive)	> 100 µM (inactive)	> 100 µM (inactive)	> 100 µM (inactive)	49.5 µM (inactive)	> 100 µM (inactive)	> 100 µM (inactive)	77.3 µM (inactive)	–
O=C(O)c1nc2cc(Cl)ccc2[nH]c1=O	> 100 µM (inactive)	> 100 µM (inactive)	> 100 µM (inactive)	> 100 µM (inactive)	> 100 µM (inactive)	> 100 µM (inactive)	> 100 µM (inactive)	> 100 µM (inactive)	> 100 µM (inactive)	> 100 µM (inactive)	> 100 µM (inactive)	> 100 µM (inactive)	> 100 µM (inactive)	> 100 µM (inactive)	> 100 µM (inactive)	> 100 µM (inactive)	–	> 100 µM (inactive)	> 100 µM (inactive)	> 100 µM (inactive)
N=C(CC(=O)NOC(=O)c1ccccc1)NOC(=O)c1ccccc1	> 100 µM (inactive)	25.2 µM (inactive)	30.9 µM (inactive)	78.3 µM (inactive)	44.8 µM (inactive)	14.7 µM (inactive)	46 µM (inactive)	17.7 µM (inactive)	36.3 µM (inactive)	33.6 µM (inactive)	> 100 µM (inactive)	96.8 µM (inactive)	59.6 µM (inactive)	> 100 µM (inactive)	74.6 µM (inactive)	36.2 µM (inactive)	–	52 µM (inactive)	34.1 µM (inactive)	–
N#CCc1nc(-c2ccccc2)n[nH]1	> 100 µM (inactive)	> 100 µM (inactive)	83.6 µM (inactive)	> 100 µM (inactive)	> 100 µM (inactive)	> 100 µM (inactive)	> 100 µM (inactive)	> 100 µM (inactive)	> 100 µM (inactive)	> 100 µM (inactive)	> 100 µM (inactive)	> 100 µM (inactive)	> 100 µM (inactive)	> 100 µM (inactive)	–	> 100 µM (inactive)	> 100 µM (inactive)	> 100 µM (inactive)	–	> 100 µM (inactive)
COC1(OC)CC(CO)(COc2cc(Cl)nc(N)n2)C1	> 100 µM (inactive)	> 100 µM (inactive)	> 100 µM (inactive)	–	> 100 µM (inactive)	> 100 µM (inactive)	> 100 µM (inactive)	> 100 µM (inactive)	> 100 µM (inactive)	> 100 µM (inactive)	> 100 µM (inactive)	> 100 µM (inactive)	> 100 µM (inactive)	> 100 µM (inactive)	–	> 100 µM (inactive)	> 100 µM (inactive)	> 100 µM (inactive)	> 100 µM (inactive)	> 100 µM (inactive)
